According to patent US20220257622A1, “COMPOSITION FOR MAINTAINING LACTOBACILLUS DOMINANCE” (Kimberly-Clark Worldwide, Inc., priority 2015, published 2022):

System: L. crispatus and E. coli
Test: Therapeutic effect protocol: L. crispatus / E. coli co-culture in LAPT-g medium with carbon source
Format: cell-based
Conditions: therapeutic agent (carbon source) 1 wt/vol %; co-culture incubated anaerobically at 37° C.; measured 36 hours after inoculation
Method: Colonies of L. crispatus and E. coli were prepared as follows. A colony of L. crispatus was transferred to 7 ml MRS broth and incubated anaerobically (using BD GasPak EZ anaerobe container system with indicator) at 37° C. without shaking for 18-20 hours. A colony of E. coli was transferred to 5m1 TSB broth and incubated aerobically (shaking at 100 rpm) at 37° C. for 18-20 hours.
Colonies were then inoculated as follows. Bacterial cultures were gently vortexed and 1 mL of each culture was transferred to a corresponding 2.0 mL micro-centrifuge tube and then centrifuged for two minutes at 14,500 rpm. The cultural supernatant was removed and the cell pellet was re-suspended in 1 mL of 0.95% (wt/vol %) saline. The re-suspended colony was then centrifuged for two minutes at 14,500 rpms and the supernatant was removed. For L. crispatus, the pellet was re-suspended in 1 mL of 0.95% saline to achieve ˜10^7 -10^8 cfu/mL. For E. coli the pellet was re-suspended in 1 mL of 0.95% saline to achieve ˜10^8-10^9 cfu/mL.
Media were prepared as follows.
All of the ingredients in Table 1 were combined and the pH was adjusted to 6.5. The media were then autoclaved for 20 minutes at 125° C. To evaluate the effect of various saccharides and organic acids (noted as carbon sources below), the following samples were prepared:
Five milliliters (5 mL) of each medium was transferred to a test tube in duplicates for subsequent inoculation. A master mixture of L. crispatus and E. coli, prepared as described above, was prepared in 1,000:1 ratio. Each (5 ml) test tube was inoculated with the master mixture to give 10^5-10^6 total CFU L. crispatus and 100-1,000 total CFU E. coli per tube.
To establish a negative control, one tube was vortexed and 100 μL was removed to determine the initial cell concentrations by serial dilutions and plating (2 plates per dilution). L. crispatus is selected on MRS agar plates incubated anaerobically at 37° C. for two days. E. coli is selected on TSA plates incubated aerobically at 37° C. for one day. The co-cultures were incubated in an anaerobic container with BD GasPaks at 37° C. for 36 hours.
The effect of the carbon source on the ratio of L. crispatus to E. coli was measured 36 hours after inoculation. The co-culture tube was vortexed and 100 μL was removed to determine the final cell concentrations by serial dilutions and plating (2 plates per dilution). L. crispatus is selected on MRS agar plates incubated anaerobically at 37° C. for two days. E. coli is selected on TSA plates incubated aerobically at 37° C. for one day.
The therapeutic effect of the formulation was then measured using the assay described above in the Test Methods section above. The therapeutic effect is summarized below as the ratio of L. crispatus to E. coli.

| Compound | L. crispatus/ E. coli ratio |
| --- | --- |
| OC[C@H]1O[C@@](CO)(OC[C@@]2(O[C@H]3O[C@H](CO)[C@@H](O)[C@H](O)[C@H]3O)O[C@H](CO)[C@@H](O)[C@@H]2O)[C@@H](O)[C@@H]1O [Sample 1, 1-Kestose] | 640 |
| OC[C@H]1O[C@@](CO)(O[C@H]2O[C@H](CO)[C@@H](O[C@H]3O[C@H](CO)[C@@H](O)[C@H](O)[C@H]3O)[C@H](O)[C@H]2O)[C@@H](O)[C@@H]1O [Sample 3, Erlose] | 32.1 |
| Palatinose [Sample 6] | 600 |
| Maltotriose [Sample 5] | 535 |
| OC[C@@H](O)[C@@H](O[C@H]1O[C@H](CO)[C@@H](O)[C@H](O)[C@H]1O)[C@H](O)[C@@H](O)CO [Sample 4, Maltitol] | 202 |
| O=CC[C@H](O)[C@H](O)CO [Sample 2, 2-Deoxy-D-Ribose] | 161 |
